Experimental data as given in PubChem BioAssay AID743059 (The Scripps Research Institute Molecular Screening Center, 2013).
Calls of active or inactive are those of the source.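 Rule for the calls: active = EC50 at or below 10 µM; inactive = EC50 above 10 µM.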

Molecular target: Nuclear hormone receptor DAF-12 (Heterodera glycines)
Test: hgDAF-12 reporter activation EC50 – cell-based, luminescence, HEK293, dose response (AID 743059);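 note: agonist potency for compounds that raise hgDAF-12 reporter luminescence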
Conditions: HEK293 hgDAF-12 reporter, luciferase luminescence

Which EC50 does the source give for `Nc1nc(Nc2ccc(Cl)cc2)nc2ccccc12` here?
Its EC50 is > 67.5 µM (inactive).

Which EC50 does the source give for `COc1ccc2oc3cc(NCCN(C)C)ccc3c(=O)c2c1` here?
The EC50 was “inactive”.

With `CCc1ccc2oc(-c3cccc(N)c3)nc2c1` as the compound, how does the EC50 read?
The EC50 was > 67.6 µM (inactive).

`C/C(=N\NC(=O)OC(C)(C)C)c1ccc[nH]1` was tested. Which EC50 did it give?
The EC50 was > 67.6 µM (inactive).

Which EC50 does the source give for `c1ccc(CSc2ccc(-c3cccs3)nn2)cc1` here?
The EC50 was > 67.5 µM (inactive).

With `COC(=O)C1C(=O)c2c([nH]c(C(=O)OC3CCCCC3)c2C)CC1C` (centres undefined) as the compound, how does the EC50 read?
The EC50 was > 67.5 µM (inactive).

For `C/C(=N/OCc1ccc(Br)cc1)c1ccccn1`, which EC50 is on record?
Its EC50 is > 67.6 µM (inactive).

For `O=C(NCCCn1ccnc1)c1cc(-c2ccccc2)on1`, which EC50 is on record?
The EC50 was 9.16 µM.

`Nc1ncc(Br)cc1N=Cc1ccccc1` was tested. Which EC50 did it give?
Its EC50 is > 67.5 µM (inactive).

With `Clc1ccc(Nc2ccc3ccccc3n2)cc1` as the compound, how does the EC50 read?
The EC50 was > 67.5 µM (inactive).

Which EC50 does the source give for `O=C(O)c1cc(-c2cccs2)[nH]n1` here?
The EC50 was > 67.6 µM (inactive).

For `CCS(=O)(=O)Nc1cc(-c2nc3cccnc3s2)ccc1C`, which EC50 is on record?
Its EC50 is > 67.5 µM (inactive).

For `OCCN1CCN(c2cnc(-c3ccsc3)cn2)CC1`, which EC50 is on record?
The EC50 was > 67.5 µM (inactive).

`Cc1ccc2nc(-c3ccccn3)oc2c1` was tested. Which EC50 did it give?
The EC50 was > 67.6 µM (inactive).

For `Cc1cc2ncc(-c3ccccc3)nc2cc1C`, which EC50 is on record?
Its EC50 is > 67.5 µM (inactive).

`Cc1ccsc1/C=N/NC(=O)c1sccc1C` was tested. Which EC50 did it give?
The EC50 was > 67.5 µM (inactive).

With `COc1cccc(/C=C/c2ccc3cccc(O)c3n2)c1` as the compound, how does the EC50 read?
The EC50 was > 67.5 µM (inactive).

With `CC/C(=N\NC(=O)c1ccoc1C)c1ccc(C)o1` as the compound, how does the EC50 read?
The EC50 was > 67.5 µM (inactive).

For `Cc1cc2nc(-c3cccnc3SCC(=O)NCc3ccco3)[nH]c2cc1C`, which EC50 is on record?
The EC50 was > 67.6 µM (inactive).

Which EC50 does the source give for `O=C(NNCc1ccccc1)c1ccccn1` here?
Its EC50 is > 67.6 µM (inactive).

Which EC50 does the source give for `COc1ccc2[nH]c(C(=O)Nc3cccc(C)n3)cc2c1` here?
The EC50 was > 67.5 µM (inactive).

For `Nc1c2c(nc3sc4c(c13)CCCC4)CCCCC2`, which EC50 is on record?
Its EC50 is > 67.6 µM (inactive).

For `CCc1ccc(C2CC(c3ccco3)=NN2S(C)(=O)=O)cc1` (centres undefined), which EC50 is on record?
Its EC50 is > 67.5 µM (inactive).

Which EC50 does the source give for `COc1ccc2oc(C(=O)Nc3nccs3)c(C)c2c1` here?
Its EC50 is > 67.5 µM (inactive).

For `Cc1ccc(Nc2ncccc2C(N)=O)cc1[N+](=O)[O-]`, which EC50 is on record?
The EC50 was > 67.6 µM (inactive).

How did the EC50 turn out when `COCC1CCN(Cc2nc(-c3cccs3)no2)C1` (centres undefined) was run?
Its EC50 is > 67.5 µM (inactive).

Which EC50 does the source give for `CCN(CC)S(=O)(=O)c1ccc(C(=O)OCC(=O)Nc2ccc(-c3nc4ccc(C)cc4s3)cc2)cc1` here?
Its EC50 is > 67.5 µM (inactive).

For `Cc1cc(C)n2c(NC3CCCC3)c(-c3cc4ccccc4o3)nc2n1`, which EC50 is on record?
Its EC50 is > 67.5 µM (inactive).

`Cc1ccc(-c2onc3ccc(C(=O)O)cc23)cc1` was tested. Which EC50 did it give?
The EC50 was > 67.6 µM (inactive).

Which EC50 does the source give for `Cc1cc(O)ccc1Nc1cc(-c2cccc(N(C)C)c2)ncn1` here?
The EC50 was > 67.5 µM (inactive).

`Nc1c(-c2cccs2)cnc2c(-c3ccc(F)cc3)cnn12` was tested. Which EC50 did it give?
Its EC50 is > 67.5 µM (inactive).

Which EC50 does the source give for `CC1=CN2C(=N)/C(=C/c3ccco3)C(=O)N=C2S1` here?
The EC50 was > 67.5 µM (inactive).

How did the EC50 turn out when `Cc1ccc(-c2nnc(NC3CCCC3)s2)cc1` was run?
The EC50 was > 67.6 µM (inactive).

How did the EC50 turn out when `Oc1ccccc1-c1cc(-c2ccc3c(c2)OCCO3)n[nH]1` was run?
The EC50 was > 67.6 µM (inactive).

Which EC50 does the source give for `O=C(NCCc1ccccc1)c1cc(-c2ccco2)on1` here?
Its EC50 is 7.6 µM.

How did the EC50 turn out when `FC(F)(F)c1cc(Cl)c2nc(-c3ccccc3)cn2c1` was run?
The EC50 was > 67.5 µM (inactive).

How did the EC50 turn out when `CC1CCc2c(sc(NC(=O)C3=COCCO3)c2C(N)=O)C1` (centres undefined) was run?
The EC50 was > 67.5 µM (inactive).

How did the EC50 turn out when `Cc1nc2nc(-c3cccs3)[nH]c2cc1Br` was run?
The EC50 was > 67.5 µM (inactive).

Which EC50 does the source give for `O=c1c2ccccc2cnn1-c1ccc2ccccc2c1` here?
The EC50 was > 67.5 µM (inactive).

How did the EC50 turn out when `CCOC(=O)CSc1nc(-c2ccncc2)ccc1C#N` was run?
The EC50 was > 67.5 µM (inactive).

For `O=c1c2ccccc2nnn1CSc1ccccc1F`, which EC50 is on record?
The EC50 was > 67.5 µM (inactive).

For `O=C(Nc1ccccc1O)c1ccc(NS(=O)(=O)c2cccc3cccnc23)cc1`, which EC50 is on record?
Its EC50 is 3.3 µM.

How did the EC50 turn out when `Cc1cc(C(=O)NC2=NCCS2)cs1` was run?
The EC50 was > 67.5 µM (inactive).

Which EC50 does the source give for `Cc1cnc(NC(=O)COc2ccc3c(c2)CCC3)s1` here?
The EC50 was > 67.6 µM (inactive).

With `Cc1ccnc(NC(=O)CCNS(=O)(=O)c2ccc(C)c(C)c2)c1` as the compound, how does the EC50 read?
Its EC50 is > 67.6 µM (inactive).

Which EC50 does the source give for `Cc1ccnc(NC(=O)C2CCN(S(=O)(=O)c3c(C)c(C)cc(C)c3C)CC2)c1` here?
Its EC50 is > 67.6 µM (inactive).

With `Cc1ccc(CN2CCN(CC(C)C)C(CCO)C2)s1` (centres undefined) as the compound, how does the EC50 read?
The EC50 was > 67.6 µM (inactive).

`Cc1ccc2c(c1)N=C(c1ccccc1)CC(C(Cl)Cl)=N2` was tested. Which EC50 did it give?
The EC50 was > 67.5 µM (inactive).

With `COCCNc1nc(-c2cc3ccccc3o2)cs1` as the compound, how does the EC50 read?
Its EC50 is > 67.5 µM (inactive).

How did the EC50 turn out when `CSc1ccc(/C=N/Nc2ccc(Cl)c(C(=O)O)c2)cc1` was run?
Its EC50 is > 67.5 µM (inactive).

For `CCN(CC)S(=O)(=O)c1cc(C(=O)OCC(=O)Nc2ccc(-c3nc4ccc(C)cc4s3)cc2)ccc1F`, which EC50 is on record?
The EC50 was > 67.5 µM (inactive).

Which EC50 does the source give for `CCn1c(O)c(C=Nc2ccccc2)sc1=S` here?
The EC50 was > 67.5 µM (inactive).

Which EC50 does the source give for `Fc1ccccc1CSc1ncnc2c1ncn2C1CCCCO1` (centres undefined) here?
Its EC50 is > 67.6 µM (inactive).

For `Cc1nc(N)sc1N=Nc1ccc(Br)cc1`, which EC50 is on record?
The EC50 was > 67.5 µM (inactive).

With `Clc1ccc(-c2cn3cc(Cl)ccc3n2)cc1` as the compound, how does the EC50 read?
Its EC50 is > 67.6 µM (inactive).

With `Cc1ccc(OCc2ccc(Br)cc2)c([N+](=O)[O-])n1` as the compound, how does the EC50 read?
Its EC50 is > 67.5 µM (inactive).

How did the EC50 turn out when `Clc1ccc(CSc2nc3ccncc3[nH]2)cc1` was run?
The EC50 was > 67.5 µM (inactive).

Which EC50 does the source give for `c1ccc(Nc2nc(-c3cccnc3)cs2)nc1` here?
The EC50 was > 67.6 µM (inactive).

`Cc1cccc(/C(N)=N/OC(=O)c2ccco2)c1` was tested. Which EC50 did it give?
The EC50 was > 67.6 µM (inactive).

For `Cc1c(C(=O)OC2CCC(C)CC2)[nH]c2c1C(=O)CCC2` (centres undefined), which EC50 is on record?
Its EC50 is > 67.5 µM (inactive).

How did the EC50 turn out when `c1ccc(CCSc2nccn2-c2ccccc2)cc1` was run?
The EC50 was > 67.6 µM (inactive).

How did the EC50 turn out when `NC(=Nc1ccccc1)NC(=O)c1nc(Cl)c(N)nc1N` was run?
Its EC50 is > 67.5 µM (inactive).

How did the EC50 turn out when `CN(C)CCNc1ncnc2c1ncn2[C@H]1CN(Cc2cccnc2)C[C@@H](CO)O1` was run?
The EC50 was > 67.5 µM (inactive).

`CC(C)Oc1cc(O)c2c(=O)c(-c3ccc(O)cc3)coc2c1` was tested. Which EC50 did it give?
Its EC50 is > 67.6 µM (inactive).

How did the EC50 turn out when `CN(C)c1ccc(C(C#N)c2ccccc2)nn1` (centres undefined) was run?
The EC50 was > 67.5 µM (inactive).

With `O=C(N/N=C/c1cccs1)c1n[nH]c2c1CCC2` as the compound, how does the EC50 read?
Its EC50 is > 67.5 µM (inactive).

For `O=c1c2cc(-c3ccccc3)sc2nc2n1CCC2`, which EC50 is on record?
The EC50 was > 67.5 µM (inactive).

For `C#CCNC(=O)C[C@H]1C[C@@]2(C(=O)OC)C(=C[C@H](C(C)C)O[C@@H]2C2CC2)N(CCCCCCCC)C1=O`, which EC50 is on record?
Its EC50 is > 67.5 µM (inactive).

With `CCOC(=O)c1csc(-c2sccc2Br)n1` as the compound, how does the EC50 read?
The EC50 was > 67.6 µM (inactive).

With `C=CCN1C=CC(=C/C=C(/C#N)C(=O)OCC)C=C1` as the compound, how does the EC50 read?
The EC50 was > 67.5 µM (inactive).

How did the EC50 turn out when `c1csc(-c2nnc(-c3ccc(N4CCOCC4)cc3)o2)c1` was run?
The EC50 was > 67.5 µM (inactive).

`COc1cccc(-c2noc(-c3cccs3)n2)c1` was tested. Which EC50 did it give?
The EC50 was > 67.6 µM (inactive).

`Cc1cc(NC(=O)c2nn3cccnc3c2Cl)no1` was tested. Which EC50 did it give?
Its EC50 is > 67.5 µM (inactive).

Which EC50 does the source give for `COC1=C/C(=C/c2c(O)c(C#N)c3ccccn23)C=CC1=O` here?
Its EC50 is > 67.5 µM (inactive).

Which EC50 does the source give for `CN(C)/C=N/C(=S)Nc1ccc(Cl)cc1` here?
Its EC50 is > 67.5 µM (inactive).

For `Cc1cccc(Nc2n[nH]c(C)c2[N+](=O)[O-])c1`, which EC50 is on record?
Its EC50 is > 67.5 µM (inactive).

Which EC50 does the source give for `Cc1ccn(-c2cccc(-n3ccc(C)n3)n2)n1` here?
The EC50 was > 67.6 µM (inactive).

`Cc1cc(C)nc(-n2nc(C)c(Sc3ccc(F)cc3)c2N)n1` was tested. Which EC50 did it give?
The EC50 was > 67.5 µM (inactive).

How did the EC50 turn out when `Cc1nc2sc(-c3ccccc3)nn2c(=O)c1Br` was run?
Its EC50 is > 67.5 µM (inactive).
